# Several values for one entry are separate records, joined by “and”; a condition that tells them apart may be missing. Identical values can stand only once.
# Columns and labels:
# [1] = given orally to control fleas; cited from earlier work
# Ctenocephalides felis = assay: Flea infestation on dogs, oral dosing, pan and comb counts; format: in vivo; settings: for Mean Efficacy / 1 hour pan counts / 3 hour pan counts / Comb Count Day 1 / # Live Fleas Removed / 4 hour pan counts / 6 hour pan counts / Efficacy, Comb Count Day 2 (reinfested) / Efficacy, Comb Count Day 5 (reinfested) / Comb Count Day 2 (reinfested) / Comb Count Day 5 (reinfested) / Efficacy, Comb Count Day 1 / Average 1 hour pan counts / Average 3 hour pan counts: dogs; for Mean Efficacy / Efficacy, Comb Count Day 2 (reinfested) / Efficacy, Comb Count Day 5 (reinfested) / Efficacy, Comb Count Day 1: fleas
# Method: Flea Species: Ctenocephalides felis
# Number: ˜100 unfed adults per dog per infestation with a sex ratio of ˜50/50
# (§1) Species/Strain/Source: Dog/beagles/Stillmeadow, Inc. dog colony
# (§2) Body weights were recorded during the pretest period. Six dogs were selected for study, weighed and randomly assigned to two groups of three and infested with either 100 fleas or 50 ticks. For the flea study whose results are shown in Table 3, repeat 100 flea infestations were performed on Days 2 and 5, without additional dosing. For all studies, the Group I dogs served as untreated controls. All animals except those in Group II of the study whose results are reported in Table 1 were dosed orally with the test article in gelatin capsules. The Group II, Table 1 animals received 5 mg of imidacloprid active in a chewable drug delivery vehicle.
# (§3) For blood collections, drawn blood was collected into lavender top Vacutainer® tubes. The tubes were centrifuged and plasma was drawn off and frozen at approximately −20° C. pending possible future shipment to the sponsor for analysis of levels of test article in the plasma. Comb and pan counts were conducted as noted in the Tables, following dosing. The number of live fleas and ticks removed during the comb counts was recorded as were, where noted in the Tables, dead tick counts.
# Rhipicephalus sanguineus = assay: Tick infestation on dogs, oral dosing, tick counts; format: in vivo; settings: for Attached Dead Day 2 / Dead Attached Day 6 / Dead Free Day 6 / Live Attached Day 6 / Live Free Day 6 / Ticks Removed Day 2 / Mean Efficacy / Efficacy / Dead Ticks / Live Ticks / Comb Count Day 3 Dead / Comb Count Day 3 Live / Hand Count Day 2: dogs; for Mean Efficacy / Efficacy / Comb Count Day 3 Dead / Comb Count Day 3 Live / Hand Count Day 2: ticks; for Efficacy: Day 6
# Method: Tick Species: Rhipicephalus sanguineus
# Number: ˜50 unfed adults per dog per infestation (˜25 male and ˜25 females)
# as §1, §2, §3
# ticks = settings: given topically, imidacloprid alone; cited from earlier work
# [2] = oral 0.5 mg/kg, individual animals, 0.5 mg/kg
# [3] = oral 1.0 mg/kg, individual animals, 1 mg/kg
# [4] = oral 3.0 mg/kg single dose, group Mean
# [5] = oral 3.0 mg/kg single dose, individual animals, 3 mg/kg
# [6] = oral 3.0 mg/kg, individual animals, 3 mg/kg
# [7] = oral 6.0 mg/kg single dose, group Mean
# [8] = oral 6.0 mg/kg, individual animals, 6 mg/kg
# [9] = oral 10.0 mg/kg single dose, group Mean
# [10] = oral 10.0 mg/kg, individual animals, 10 mg/kg
# [11] = oral 3 mg/kg, individual animals, 3 mg/kg
# [12] = oral 10 mg/kg, individual animals, 10 mg/kg
# [13] = oral 15 mg/kg, Day 1, group Mean
# [14] = oral 15 mg/kg, Day 1, individual animals, 15 mg/kg
# [15] = oral 22 mg/kg, Day 1, group Mean
# [16] = oral 22 mg/kg, Day 1, individual animals, 22 mg/kg
# [17] = oral 30 mg/kg, Day 1, group Mean
# [18] = oral 30 mg/kg, Day 1, individual animals, 30 mg/kg
# [19] = oral 30 mg/kg, individual animals, 30 mg/kg
structure (smiles),measurement,setting,value
"N#Cc1nn(-c2c(Cl)cc(C(F)(F)F)cc2Cl)c(N)c1[S+]([O-])C(F)(F)F (centres unmarked) [Fipronil, 5-amino-1-[2,6-dichloro-4-(trifluoromethyl)phenyl]-4-[(trifluoromethyl)sulfinyl]-1H-pyrazole-3-carbonitrile]",emesis,[1],known to cause emesis
"O=[N+]([O-])N=C1NCCN1Cc1ccc(Cl)nc1 [Imidacloprid, 1-[(6-chloro-3-pyridinyl)methyl]-N-nitro-2-imidazolidinimine]",Mean Efficacy,"Ctenocephalides felis; oral 0.25 mg/kg, Day 1",100.0
same,1 hour pan counts,"Ctenocephalides felis; oral 0.25 mg/kg, group Mean",0.0
same,3 hour pan counts,"Ctenocephalides felis; oral 0.25 mg/kg, group Mean",5.5
same,1 hour pan counts,"Ctenocephalides felis; oral 0.25 mg/kg, individual animals",0
same,3 hour pan counts,"Ctenocephalides felis; oral 0.25 mg/kg, individual animals, 0.25 mg/kg",2 and 9
same,Comb Count Day 1,"Ctenocephalides felis; oral 0.25 mg/kg, live fleas, group Mean",0.0
same,Comb Count Day 1,"Ctenocephalides felis; oral 0.25 mg/kg, live fleas, individual animals",0
same,# Live Fleas Removed,"Ctenocephalides felis; oral 0.5 mg/kg, column after 4 hour pan counts, group Mean",22.7
same,# Live Fleas Removed,"Ctenocephalides felis; oral 0.5 mg/kg, column after 4 hour pan counts, individual animals, 0.5 mg/kg",31 and 2 and 35
same,# Live Fleas Removed,"Ctenocephalides felis; oral 0.5 mg/kg, column after 6 hour pan counts, group Mean",0.0
same,# Live Fleas Removed,"Ctenocephalides felis; oral 0.5 mg/kg, column after 6 hour pan counts, individual animals",0
same,Mean Efficacy,Ctenocephalides felis; oral 0.5 mg/kg,100.0
same,4 hour pan counts,"Ctenocephalides felis; oral 0.5 mg/kg, group Mean",0.0
same,6 hour pan counts,"Ctenocephalides felis; oral 0.5 mg/kg, group Mean",39.7
same,4 hour pan counts,Ctenocephalides felis; [2],5 and 45 and 15
same,6 hour pan counts,Ctenocephalides felis; [2],39 and 33 and 47
same,# Live Fleas Removed,"Ctenocephalides felis; oral 1.0 mg/kg, column after 4 hour pan counts, group Mean",9.0
same,# Live Fleas Removed,"Ctenocephalides felis; oral 1.0 mg/kg, column after 4 hour pan counts, individual animals, 1 mg/kg",4 and 12 and 11
same,# Live Fleas Removed,"Ctenocephalides felis; oral 1.0 mg/kg, column after 6 hour pan counts, group Mean",0.0
same,# Live Fleas Removed,"Ctenocephalides felis; oral 1.0 mg/kg, column after 6 hour pan counts, individual animals",0
same,Mean Efficacy,Ctenocephalides felis; oral 1.0 mg/kg,100.0
same,4 hour pan counts,"Ctenocephalides felis; oral 1.0 mg/kg, group Mean",41.7
same,6 hour pan counts,"Ctenocephalides felis; oral 1.0 mg/kg, group Mean",44.0
same,4 hour pan counts,Ctenocephalides felis; [3],44 and 41 and 40
same,6 hour pan counts,Ctenocephalides felis; [3],35 and 44 and 53
same,"Efficacy, Comb Count Day 2 (reinfested)",Ctenocephalides felis; oral 3.0 mg/kg single dose,68.1
same,"Efficacy, Comb Count Day 5 (reinfested)",Ctenocephalides felis; oral 3.0 mg/kg single dose,42.1
same,Comb Count Day 2 (reinfested),Ctenocephalides felis; [4],22.3
same,Comb Count Day 5 (reinfested),Ctenocephalides felis; [4],25.3
same,Comb Count Day 2 (reinfested),Ctenocephalides felis; [5],15 and 40 and 12
same,Comb Count Day 5 (reinfested),Ctenocephalides felis; [5],32 and 80 and 42
same,"Efficacy, Comb Count Day 1",Ctenocephalides felis; oral 3.0 mg/kg,100.0
same,Average 1 hour pan counts,"Ctenocephalides felis; oral 3.0 mg/kg, group Mean",1.3
same,Average 3 hour pan counts,"Ctenocephalides felis; oral 3.0 mg/kg, group Mean",9.0
same,Comb Count Day 1,"Ctenocephalides felis; oral 3.0 mg/kg, group Mean",0.0
same,Comb Count Day 1,"Ctenocephalides felis; oral 3.0 mg/kg, individual animals",0
same,Average 1 hour pan counts,Ctenocephalides felis; [6],2 and 1 (2×)
same,Average 3 hour pan counts,Ctenocephalides felis; [6],7 and 9 and 11
same,"Efficacy, Comb Count Day 2 (reinfested)",Ctenocephalides felis; oral 6.0 mg/kg single dose,100.0
same,"Efficacy, Comb Count Day 5 (reinfested)",Ctenocephalides felis; oral 6.0 mg/kg single dose,79.3
same,Comb Count Day 2 (reinfested),Ctenocephalides felis; [7],0.0
same,Comb Count Day 5 (reinfested),Ctenocephalides felis; [7],12.1
same,Comb Count Day 2 (reinfested),"Ctenocephalides felis; oral 6.0 mg/kg single dose, individual animals",0
same,Comb Count Day 5 (reinfested),"Ctenocephalides felis; oral 6.0 mg/kg single dose, individual animals, 6 mg/kg",7 and 17 and 31
same,"Efficacy, Comb Count Day 1",Ctenocephalides felis; oral 6.0 mg/kg,100.0
same,Average 1 hour pan counts,"Ctenocephalides felis; oral 6.0 mg/kg, group Mean",7.6
same,Average 3 hour pan counts,"Ctenocephalides felis; oral 6.0 mg/kg, group Mean",19.6
same,Comb Count Day 1,"Ctenocephalides felis; oral 6.0 mg/kg, group Mean",0.0
same,Comb Count Day 1,"Ctenocephalides felis; oral 6.0 mg/kg, individual animals",0
same,Average 1 hour pan counts,Ctenocephalides felis; [8],5 and 6 and 12
same,Average 3 hour pan counts,Ctenocephalides felis; [8],13 and 22 and 27
same,"Efficacy, Comb Count Day 2 (reinfested)",Ctenocephalides felis; oral 10.0 mg/kg single dose,100.0
same,"Efficacy, Comb Count Day 5 (reinfested)",Ctenocephalides felis; oral 10.0 mg/kg single dose,97.7
same,Comb Count Day 2 (reinfested),Ctenocephalides felis; [9],0.0
same,Comb Count Day 5 (reinfested),Ctenocephalides felis; [9],2.0
same,Comb Count Day 2 (reinfested),"Ctenocephalides felis; oral 10.0 mg/kg single dose, individual animals",0
same,Comb Count Day 5 (reinfested),"Ctenocephalides felis; oral 10.0 mg/kg single dose, individual animals, 10 mg/kg",0 and 5 and 1
same,"Efficacy, Comb Count Day 1",Ctenocephalides felis; oral 10.0 mg/kg,100.0
same,Average 1 hour pan counts,"Ctenocephalides felis; oral 10.0 mg/kg, group Mean",11.3
same,Average 3 hour pan counts,"Ctenocephalides felis; oral 10.0 mg/kg, group Mean",19.0
same,Comb Count Day 1,"Ctenocephalides felis; oral 10.0 mg/kg, group Mean",0.0
same,Comb Count Day 1,"Ctenocephalides felis; oral 10.0 mg/kg, individual animals",0
same,Average 1 hour pan counts,Ctenocephalides felis; [10],10 and 16 and 8
same,Average 3 hour pan counts,Ctenocephalides felis; [10],14 and 25 and 18
same,efficacious against pre-existing C. felis infestations,Ctenocephalides felis; orally dosed at a rate as low as 0.25 mg/kg,100%
same,effective against a flea infestation on treated animals,"Ctenocephalides felis; single oral dose 0.25 mg/kg, within as little as an hour of administration",100%
same,Attached Dead Day 2,"Rhipicephalus sanguineus; oral 3 mg/kg, group Mean",1
same,Dead Attached Day 6,"Rhipicephalus sanguineus; oral 3 mg/kg, group Mean",0
same,Dead Free Day 6,"Rhipicephalus sanguineus; oral 3 mg/kg, group Mean",0.0
same,Live Attached Day 6,"Rhipicephalus sanguineus; oral 3 mg/kg, group Mean",8
same,Live Free Day 6,"Rhipicephalus sanguineus; oral 3 mg/kg, group Mean",0
same,Ticks Removed Day 2,"Rhipicephalus sanguineus; oral 3 mg/kg, group Mean",18
same,Dead Free Day 6,"Rhipicephalus sanguineus; oral 3 mg/kg, individual animals",0
same,Attached Dead Day 2,Rhipicephalus sanguineus; [11],1 (2×) and 0
same,Dead Attached Day 6,Rhipicephalus sanguineus; [11],2 (2×) and 0
same,Live Attached Day 6,Rhipicephalus sanguineus; [11],6 and 4 and 13
same,Live Free Day 6,Rhipicephalus sanguineus; [11],1 and 0 (2×)
same,Ticks Removed Day 2,Rhipicephalus sanguineus; [11],17 and 8 and 28
same,Mean Efficacy,"Rhipicephalus sanguineus; oral 3 mg/kg, Day 2",15.9
same,Efficacy,Rhipicephalus sanguineus; oral 3 mg/kg,61.0
same,Attached Dead Day 2,"Rhipicephalus sanguineus; oral 10 mg/kg, group Mean",3
same,Dead Attached Day 6,"Rhipicephalus sanguineus; oral 10 mg/kg, group Mean",0
same,Dead Free Day 6,"Rhipicephalus sanguineus; oral 10 mg/kg, group Mean",0
same,Live Attached Day 6,"Rhipicephalus sanguineus; oral 10 mg/kg, group Mean",17
same,Live Free Day 6,"Rhipicephalus sanguineus; oral 10 mg/kg, group Mean",0
same,Ticks Removed Day 2,"Rhipicephalus sanguineus; oral 10 mg/kg, group Mean",20
same,Dead Free Day 6,"Rhipicephalus sanguineus; oral 10 mg/kg, individual animals",0
same,Attached Dead Day 2,Rhipicephalus sanguineus; [12],2 and 0 and 6
same,Dead Attached Day 6,Rhipicephalus sanguineus; [12],1 and 0 (2×)
same,Live Attached Day 6,Rhipicephalus sanguineus; [12],14 and 8 and 28
same,Live Free Day 6,Rhipicephalus sanguineus; [12],1 and 0 (2×)
same,Ticks Removed Day 2,Rhipicephalus sanguineus; [12],16 and 22 and 23
same,Mean Efficacy,"Rhipicephalus sanguineus; oral 10 mg/kg, Day 2",3.2
same,Efficacy,Rhipicephalus sanguineus; oral 10 mg/kg,15.3
same,Dead Ticks,Rhipicephalus sanguineus; [13],1
same,Live Ticks,Rhipicephalus sanguineus; [13],15
same,Dead Ticks,Rhipicephalus sanguineus; [14],0 and 3 and 1
same,Live Ticks,Rhipicephalus sanguineus; [14],33 and 2 and 10
same,Mean Efficacy,"Rhipicephalus sanguineus; oral 15 mg/kg, Day 1",48.9
same,Dead Ticks,Rhipicephalus sanguineus; [15],1
same,Live Ticks,Rhipicephalus sanguineus; [15],9
same,Dead Ticks,Rhipicephalus sanguineus; [16],2 and 1 and 0
same,Live Ticks,Rhipicephalus sanguineus; [16],3 and 12 and 13
same,Mean Efficacy,"Rhipicephalus sanguineus; oral 22 mg/kg, Day 1",68.2
same,Dead Ticks,Rhipicephalus sanguineus; [17],2
same,Live Ticks,Rhipicephalus sanguineus; [17],11
same,Dead Ticks,Rhipicephalus sanguineus; [18],7 and 0 (2×)
same,Live Ticks,Rhipicephalus sanguineus; [18],10 and 12 and 11
same,Mean Efficacy,"Rhipicephalus sanguineus; oral 30 mg/kg, Day 1",62.5
same,Mean Efficacy,"Rhipicephalus sanguineus; oral 30 mg/kg, Day 3",79.5
same,Comb Count Day 3 Dead,"Rhipicephalus sanguineus; oral 30 mg/kg, group Mean",1
same,Comb Count Day 3 Live,"Rhipicephalus sanguineus; oral 30 mg/kg, group Mean",5
same,Hand Count Day 2,"Rhipicephalus sanguineus; oral 30 mg/kg, group Mean",9
same,Comb Count Day 3 Dead,Rhipicephalus sanguineus; [19],0 (2×) and 2
same,Comb Count Day 3 Live,Rhipicephalus sanguineus; [19],6 and 5 and 4
same,Hand Count Day 2,Rhipicephalus sanguineus; [19],8 and 13 and 7
same,effective against a tick infestation on treated animals,"Rhipicephalus sanguineus; single oral dose 3 mg/kg, within as little as 24-48 hours of administration",at least 60%
same,effect on ticks,ticks,little or no effect on ticks

# Reference: patent publication US9820977B2, “Systemic treatment of blood-sucking and blood-consuming parasites by oral administration of a parasiticidal agent” (priority 2008, dated 2017)
